Experimental data reported in patent US12478628B2, “Germ cell nuclear factor ligands and methods of use thereof” (Saint Louis University, priority 2020, dated 2025).

Molecular target: T1, GCNF LBD (Homo sapiens, UniProt Q15406)
T1 construct: Human GCNF (NR6A1) LBD (residues 248-480); made in house; host or cells: E. coli BL(21) DE3
T1 sequence (Q15406 248-480): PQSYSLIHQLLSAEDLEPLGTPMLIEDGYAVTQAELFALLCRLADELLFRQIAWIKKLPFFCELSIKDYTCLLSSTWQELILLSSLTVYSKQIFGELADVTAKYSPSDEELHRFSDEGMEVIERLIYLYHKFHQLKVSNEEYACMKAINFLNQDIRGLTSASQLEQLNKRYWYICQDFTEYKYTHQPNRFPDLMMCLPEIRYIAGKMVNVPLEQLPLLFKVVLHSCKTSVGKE
Test: Differential scanning fluorimetry (DSF) of GCNF LBD
Assay type: binding
Details: additional ligand screening
Experimental: DSF Assay. GCNF LBD (5 μM) were mixed with 1× Sypro orange (Invitrogen) in DSF buffer (50 mM HEPES, 50 mM KCl, 5 mM TCEP, 0.5 mM EDTA, pH 7.5). Test compounds was added at 1:1 molar equivalence as protein or replaced with DMSO control. Ten microliters (10 μL)×5 replicates for each sample were plated on 384-well PCR microplate. No protein control and no ligand references were also run simultaneously in 5 replicates on the same plate. A total of 450 compounds (Life Chemicals) previously selected from a nuclear-receptor-biased library targeting REV-ERB were analyzed. Thermal stability was assessed on a Quantstudio 6 instrument (Biosystems) by ramping the temperature from 25° C. to 95° C. at 0.05° C./s and protein melt shifts were subsequently quantified by Boltzmann-derived melting temperature (Tm) using the Protein Thermal Shift (ThermoFisher) software. Positive hits were identified when a thermal shift (ΔTm) of at least 2° C. was observed.
For the DSF ligand titration assay, ligands 30, 34 and 80 were titrated against 5 μM GCNF LBD with a ligand concentration series of 30, 20, 13, 9, 6, 4, 2.6, 1.7 and 0 μM from a 20 mM DMSO stock solution. DSF assay and analysis was then performed as described above. All DSF data were reported as mean±SEM.

Row | Compound | change in Tm of GCNF
1 | CCCCCn1c(SCC(=O)CC(=O)OCC)nc2cc(C(=O)NCc3ccco3)ccc2c1=O [R12] | 0.8 °C
2 | COc1ccc(NC(=O)N2CCC3(CC2)N=C(SCc2ccccc2)C(c2ccccc2)=N3)cc1OC [U2] | 2.3 °C
3 | CC(=O)Nc1ccc(NCC(O)Cn2c3ccccc3n3c(=O)cc(C)c(C#N)c23)cc1 (stereo not drawn) [U7] | 1.0 °C
4 | COC(=O)COc1cccc2c(=O)n(CC(=O)NCCc3ccc(OC)c(OC)c3)ccc12 [R9] | 0.8 °C
5 | CCOC(=O)C(C)Oc1cccc2c(=O)n(CC(=O)Nc3c(C)cc(C)cc3C)ccc12 (stereo not drawn) [R5] | 1.6 °C
6 | O=C1CCCC2=C1C(c1ccc(O)cc1)C1=C(CCCC1=O)O2 [U1] | 0.9 °C
